Results taken from PubChem BioAssay (NCI).
Several values for one entry are separate records, joined by “and”; a condition that tells them apart may be missing. Identical values can stand only once.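 All cell lines were grown in 96-well plates and treated with compound for 48 hours. GI50: concentration for 50% inhibition of growth. The concentration for full growth arrest is given as TGI.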

Assays:
Experiment in all cases: NCI-60 cell line screen, 48 h
[1] = test system: CAKI-1 renal
[2] = test system: ACHN renal
[3] = test system: MALME-3M melanoma
[4] = test system: HOP-92 NSCLC
[5] = test system: EKVX NSCLC
[6] = test system: A549 NSCLC
[7] = test system: 786-0 renal
[8] = test system: CCRF-CEM leukemia
[9] = test system: HCC-2998 colon
[10] = test system: KM12 colon
[11] = test system: HL-60(TB) leukemia
[12] = test system: NCI-H226 lung
[13] = test system: OVCAR-3 ovarian
[14] = test system: MDA-N
[15] = test system: UACC-257 melanoma
[16] = test system: PC-3 prostate
[17] = test system: SR leukemia
[18] = test system: SK-MEL-28 melanoma
[19] = test system: NCI-H23 lung
[20] = test system: UACC-62 melanoma
[21] = test system: OVCAR-4 ovarian
[22] = test system: MDA-MB-231 breast
[23] = test system: HCT-116 colon
[24] = test system: SF-539 CNS
[25] = test system: DU-145 prostate
[26] = test system: RXF 393 renal
[27] = test system: NCI-H460 lung
[28] = test system: SK-MEL-2 melanoma
[29] = test system: RPMI-8226 leukemia
[30] = test system: MCF7 breast
[31] = test system: NCI-H522 lung
[32] = test system: SNB-19 CNS
[33] = test system: OVCAR-5 ovarian
[34] = test system: U251 CNS
[35] = test system: UO-31 renal
[36] = test system: HS 578T breast
[37] = test system: BT-549 breast
[38] = test system: SF-268 CNS
[39] = test system: HOP-62 NSCLC
[40] = test system: HT29 colon
[41] = test system: MDA-MB-435
[42] = test system: OVCAR-8 ovarian
[43] = test system: M14 melanoma
[44] = test system: T-47D breast
[45] = test system: NCI/ADR-RES ovarian
[46] = test system: LOX IMVI melanoma
[47] = test system: MOLT-4 leukemia
[48] = test system: IGROV1 ovarian
[49] = test system: TK-10 renal
[50] = test system: A498 renal
[51] = test system: SK-MEL-5 melanoma
[52] = test system: K-562 leukemia
[53] = test system: SNB-75 CNS
[54] = test system: SW-620 colon
[55] = test system: HCT-15 colon
[56] = test system: SN12C renal
[57] = test system: COLO 205 colon
[58] = test system: SF-295 CNS
[59] = test system: SK-OV-3 ovarian

`O/C(=C\c1nc2ccccc2nc1/C=C(\O)c1ccc(F)cc1)c1ccc(F)cc1` showed a TGI [1] greater than 100 µM, a TGI [2] greater than 100 µM and a TGI [3] greater than 100 µM. It also gave a TGI [4] greater than 100 µM, a TGI [5] greater than 100 µM and a TGI [6] greater than 100 µM. The TGI [7] was greater than 100 µM, the TGI [8] was greater than 100 µM and the TGI [9] was greater than 100 µM. The TGI [10] was greater than 100 µM, the TGI [11] was greater than 100 µM and the TGI [12] was greater than 100 µM. For the same compound, the TGI [13] was greater than 100 µM, the TGI [14] was greater than 100 µM and the TGI [15] was greater than 100 µM. It also gave a TGI [16] greater than 100 µM, a TGI [17] greater than 100 µM and a TGI [18] greater than 100 µM. The TGI [19] was greater than 100 µM, the TGI [20] was greater than 100 µM and the TGI [21] was greater than 100 µM. It also gave a TGI [22] greater than 100 µM, a TGI [23] greater than 100 µM and a TGI [24] greater than 100 µM. The TGI [25] was greater than 100 µM, the TGI [26] was greater than 100 µM and the TGI [27] was greater than 100 µM. For the same compound, the TGI [28] was greater than 100 µM, the TGI [29] was greater than 100 µM and the TGI [30] was greater than 100 µM. It also gave a TGI [31] greater than 100 µM, a TGI [32] greater than 100 µM and a TGI [33] greater than 100 µM. The TGI [34] was greater than 100 µM, the TGI [35] was greater than 100 µM and the TGI [36] was greater than 100 µM. The TGI [37] was greater than 100 µM, the TGI [38] was greater than 100 µM and the TGI [39] was greater than 100 µM. The TGI [40] was greater than 100 µM, the TGI [41] was greater than 100 µM and the TGI [42] was greater than 100 µM. For the same compound, the TGI [43] was greater than 100 µM, the TGI [44] was greater than 100 µM and the TGI [45] was greater than 100 µM. For the same compound, the TGI [46] was greater than 100 µM, the TGI [47] was greater than 100 µM and the TGI [48] was greater than 100 µM. It also gave a TGI [49] greater than 100 µM, a TGI [50] greater than 100 µM and a TGI [51] greater than 100 µM. It also gave a TGI [52] greater than 100 µM, a TGI [53] greater than 100 µM and a TGI [54] greater than 100 µM. It also gave a TGI [55] greater than 100 µM, a TGI [56] greater than 100 µM and a TGI [57] greater than 100 µM.
For `CC1OC(OC2C(OC(=O)[C@]34CCC(C)(C)C[C@H]3C3=CC[C@@H]5[C@@]6(C)CC[C@H](OC7OC(CO)C(O)C(O)C7OC7OC(CO)C(O)C(O)C7O)C(C)(C)[C@@H]6CC[C@@]5(C)[C@]3(C)CC4)OCC(O)C2O)C(O)C(O)C1OC1OCC(O)C(OC2OCC(O)C(O)C2O)C1O` (stereo not given in full), the TGI [1] was 15.8 µM and 15.3 µM, the TGI [2] was 15.4 µM and 18.3 µM and the TGI [3] was 6.6 µM and 7.27 µM. The TGI [4] was 5.81 µM and 4.97 µM, the TGI [5] was 8.6 µM and 7.32 µM and the TGI [6] was 10.2 µM and 9.72 µM. For the same compound, the TGI [58] was 13.1 µM and 10.7 µM, the TGI [7] was 18.9 µM and 19.7 µM and the TGI [8] was 30 µM and 31.6 µM. The TGI [9] was 3.75 µM and 3.4 µM, the TGI [10] was 11.8 µM and 12.5 µM and the GI50 [11] was 1 µM and 2.72 µM. The TGI [11] was 4.15 µM and 7.43 µM, the TGI [12] was 13.9 µM and 12.4 µM and the TGI [13] was 22.3 µM and 34.6 µM. For the same compound, the TGI [14] was 3.58 µM and 3.09 µM, the TGI [15] was 6.02 µM and 5.36 µM and the TGI [16] was 17.8 µM and 19.1 µM. For the same compound, the TGI [17] was 8.14 µM and 8.97 µM, the TGI [18] was 3.9 µM and 3.82 µM and the TGI [19] was 8.52 µM and 6.54 µM. The TGI [20] was 6.58 µM and 4.71 µM, the TGI [21] was 19.2 µM and 21.6 µM and the TGI [22] was 8.71 µM and 9.09 µM. For the same compound, the TGI [23] was 16.7 µM and 14 µM, the TGI [24] was 42.7 µM and > 100 µM and the TGI [25] was 19.2 µM and 20.8 µM. The TGI [26] was 20.5 µM and 24.7 µM, the TGI [27] was 31.9 µM and 40.5 µM and the TGI [28] was 8.07 µM and 8.23 µM. For the same compound, the TGI [29] was 16.1 µM and 17.4 µM, the GI50 [30] was 3.76 µM and 1.87 µM and the TGI [30] was 11 µM and 7.69 µM. For the same compound, the TGI [31] was 7.68 µM and 6.53 µM, the TGI [32] was 20.8 µM and 20.5 µM and the TGI [33] was 16.7 µM and 16 µM. The TGI [34] was 22.9 µM and 19.7 µM, the TGI [35] was 4.14 µM and 3.85 µM and the TGI [36] was 30.3 µM and 29.3 µM. For the same compound, the TGI [37] was 10.8 µM, the TGI [38] was 38.7 µM and 20.5 µM and the GI50 [39] was 9.23 µM and 3.83 µM. The TGI [39] was 23.3 µM and 11.2 µM, the TGI [40] was 10.8 µM and 9.01 µM and the TGI [41] was 3.59 µM and 3.22 µM. The TGI [42] was 26.9 µM and 21.7 µM, the TGI [43] was 3.98 µM and 3.49 µM and the TGI [44] was 21.8 µM and 16.6 µM. For the same compound, the TGI [45] was 18.1 µM and 16.2 µM, the TGI [59] was 25.6 µM and 26.5 µM and the TGI [46] was 24 µM and 23.6 µM. The GI50 [47] was 2.87 µM and 9.41 µM, the TGI [47] was 22.4 µM and 26.6 µM and the TGI [48] was 26.4 µM and 24.3 µM. For the same compound, the TGI [49] was 21.1 µM and 21.8 µM, the TGI [50] was 4.44 µM and 3.95 µM and the TGI [51] was 8.11 µM and 10.3 µM. The TGI [52] was 18.8 µM and 17.6 µM, the TGI [53] was 17 µM and 20.8 µM and the TGI [54] was 25.3 µM and 23.6 µM. The TGI [55] was 27 µM and 26.8 µM, the TGI [56] was 4.82 µM and 4.43 µM and the TGI [57] was 3.42 µM and 6.5 µM.
